Results published in ChEMBL document CHEMBL3774336, “Identification of spirooxindole and dibenzoxazepine motifs as potent mineralocorticoid receptor antagonists” (Bioorg Med Chem, 2016).
pEC50, pIC50: −log10 of the molar value.

Columns and labels:
Cytochrome P450 2C9 = Cytochrome P450 2C9 (Homo sapiens, UniProt P11712); experiment: Inhibition of CYP2C9 (unknown origin); format: ADME
Cytochrome P450 2D6 = Cytochrome P450 2D6 (Homo sapiens, UniProt P10635); experiment: Inhibition of CYP2D6 (unknown origin); format: ADME
Chain of Cytochrome P450 2D6 (P10635 whole entry): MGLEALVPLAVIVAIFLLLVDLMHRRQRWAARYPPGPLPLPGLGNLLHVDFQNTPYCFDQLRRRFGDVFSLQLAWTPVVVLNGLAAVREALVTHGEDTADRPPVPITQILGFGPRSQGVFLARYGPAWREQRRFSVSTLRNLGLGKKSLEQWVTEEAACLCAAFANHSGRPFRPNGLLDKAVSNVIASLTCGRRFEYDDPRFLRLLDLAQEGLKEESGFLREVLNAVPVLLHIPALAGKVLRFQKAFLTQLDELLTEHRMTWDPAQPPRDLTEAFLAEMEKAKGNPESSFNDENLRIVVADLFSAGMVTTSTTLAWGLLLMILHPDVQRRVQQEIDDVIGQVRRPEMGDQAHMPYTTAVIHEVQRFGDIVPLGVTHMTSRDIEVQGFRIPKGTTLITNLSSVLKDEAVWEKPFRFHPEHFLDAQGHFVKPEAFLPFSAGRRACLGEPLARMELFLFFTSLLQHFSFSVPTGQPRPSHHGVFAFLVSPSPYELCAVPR

[1] = target: 5-hydroxytryptamine receptor 2B (Homo sapiens) (UniProt P41595); experiment: Inhibition of serotonin 5H2B receptor (unknown origin) at 10 uM
Chain of 5-hydroxytryptamine receptor 2B (Homo sapiens) (P41595 whole entry): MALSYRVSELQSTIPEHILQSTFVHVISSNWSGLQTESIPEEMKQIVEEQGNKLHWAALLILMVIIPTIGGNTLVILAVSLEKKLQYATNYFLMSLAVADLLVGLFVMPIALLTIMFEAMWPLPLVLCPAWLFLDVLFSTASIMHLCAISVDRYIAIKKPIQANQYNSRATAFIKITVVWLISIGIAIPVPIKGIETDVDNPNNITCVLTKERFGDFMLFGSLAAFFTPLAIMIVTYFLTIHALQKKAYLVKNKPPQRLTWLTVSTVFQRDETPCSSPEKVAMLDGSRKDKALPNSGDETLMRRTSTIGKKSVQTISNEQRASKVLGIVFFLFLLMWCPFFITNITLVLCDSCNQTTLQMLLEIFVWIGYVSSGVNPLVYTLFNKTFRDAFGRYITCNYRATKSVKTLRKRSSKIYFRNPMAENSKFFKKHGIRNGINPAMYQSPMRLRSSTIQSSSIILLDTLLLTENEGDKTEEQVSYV

[2] = target: T1, Alpha-2A adrenergic receptor (Homo sapiens) (UniProt P08913); experiment: Inhibition of adrenergic alpha2A receptor (unknown origin) at 10 uM
T1 sequence (whole entry): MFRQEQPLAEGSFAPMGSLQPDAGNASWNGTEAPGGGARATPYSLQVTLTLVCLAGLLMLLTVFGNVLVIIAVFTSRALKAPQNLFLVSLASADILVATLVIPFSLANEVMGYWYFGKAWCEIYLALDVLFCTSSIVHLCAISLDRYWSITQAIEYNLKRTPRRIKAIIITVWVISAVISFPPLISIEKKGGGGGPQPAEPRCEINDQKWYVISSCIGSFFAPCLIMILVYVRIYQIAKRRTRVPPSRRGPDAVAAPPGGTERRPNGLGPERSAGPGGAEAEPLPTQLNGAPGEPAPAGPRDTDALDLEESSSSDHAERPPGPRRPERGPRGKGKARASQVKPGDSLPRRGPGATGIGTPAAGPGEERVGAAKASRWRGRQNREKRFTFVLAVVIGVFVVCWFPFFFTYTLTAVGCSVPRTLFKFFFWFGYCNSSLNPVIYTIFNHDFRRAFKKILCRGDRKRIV

[3] = Half life of compound in rat liver microsomes; format: ADME
[4] = target: T2, Estrogen receptor (Homo sapiens) (UniProt P03372); experiment: Inhibition of estrogen receptor (unknown origin) at 10 uM by Gal4-based luciferase assay
T2 sequence (whole entry): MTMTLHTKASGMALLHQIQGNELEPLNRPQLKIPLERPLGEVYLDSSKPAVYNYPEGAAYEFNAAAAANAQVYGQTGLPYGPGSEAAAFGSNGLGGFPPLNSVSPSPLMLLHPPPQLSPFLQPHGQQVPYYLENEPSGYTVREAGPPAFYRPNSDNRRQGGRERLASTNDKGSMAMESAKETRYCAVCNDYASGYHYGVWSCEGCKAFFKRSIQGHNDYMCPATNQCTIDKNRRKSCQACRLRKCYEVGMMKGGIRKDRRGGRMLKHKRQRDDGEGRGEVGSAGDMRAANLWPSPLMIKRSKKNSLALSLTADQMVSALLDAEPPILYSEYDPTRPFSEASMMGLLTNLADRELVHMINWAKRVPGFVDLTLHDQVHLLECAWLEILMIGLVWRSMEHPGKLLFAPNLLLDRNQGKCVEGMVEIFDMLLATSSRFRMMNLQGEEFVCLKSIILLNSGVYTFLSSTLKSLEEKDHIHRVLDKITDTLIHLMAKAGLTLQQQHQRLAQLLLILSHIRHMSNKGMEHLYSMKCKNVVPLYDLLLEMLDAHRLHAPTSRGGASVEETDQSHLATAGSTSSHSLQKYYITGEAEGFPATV

[5] = target: T3, Mineralocorticoid receptor (Homo sapiens, UniProt P08235, C808S)
Cytochrome P450 3A4 = Cytochrome P450 3A4 (Homo sapiens, UniProt P08684)
Chain of Cytochrome P450 3A4 (P08684 whole entry, the tested form may be a part): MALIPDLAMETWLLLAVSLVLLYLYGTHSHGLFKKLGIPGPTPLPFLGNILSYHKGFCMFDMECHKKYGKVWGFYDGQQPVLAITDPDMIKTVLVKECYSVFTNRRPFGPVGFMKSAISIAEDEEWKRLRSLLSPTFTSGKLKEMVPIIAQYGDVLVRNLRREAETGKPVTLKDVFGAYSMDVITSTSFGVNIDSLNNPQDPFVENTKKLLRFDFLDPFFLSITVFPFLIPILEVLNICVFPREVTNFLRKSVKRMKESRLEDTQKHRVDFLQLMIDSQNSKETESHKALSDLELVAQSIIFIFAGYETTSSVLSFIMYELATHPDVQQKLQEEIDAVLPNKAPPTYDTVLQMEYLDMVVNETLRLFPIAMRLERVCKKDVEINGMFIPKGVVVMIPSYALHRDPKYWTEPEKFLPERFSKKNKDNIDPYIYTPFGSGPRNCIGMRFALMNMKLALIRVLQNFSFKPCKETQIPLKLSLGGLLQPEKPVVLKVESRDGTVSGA
Description: Inhibition of CYP3A4 (unknown origin)

[6] = tested on: T4, Mineralocorticoid receptor (Homo sapiens), P08235 [C808S]; experiment: (§1) Agonist activity against 6xHis-MBP-fused human MR LBD domain (732 to 984 amino acid residues) C808S mutant expressed in Escherichia coli BL21(DE3) assessed as receptor activation after 16 hrs by luciferase assay
T4 sequence (whole entry): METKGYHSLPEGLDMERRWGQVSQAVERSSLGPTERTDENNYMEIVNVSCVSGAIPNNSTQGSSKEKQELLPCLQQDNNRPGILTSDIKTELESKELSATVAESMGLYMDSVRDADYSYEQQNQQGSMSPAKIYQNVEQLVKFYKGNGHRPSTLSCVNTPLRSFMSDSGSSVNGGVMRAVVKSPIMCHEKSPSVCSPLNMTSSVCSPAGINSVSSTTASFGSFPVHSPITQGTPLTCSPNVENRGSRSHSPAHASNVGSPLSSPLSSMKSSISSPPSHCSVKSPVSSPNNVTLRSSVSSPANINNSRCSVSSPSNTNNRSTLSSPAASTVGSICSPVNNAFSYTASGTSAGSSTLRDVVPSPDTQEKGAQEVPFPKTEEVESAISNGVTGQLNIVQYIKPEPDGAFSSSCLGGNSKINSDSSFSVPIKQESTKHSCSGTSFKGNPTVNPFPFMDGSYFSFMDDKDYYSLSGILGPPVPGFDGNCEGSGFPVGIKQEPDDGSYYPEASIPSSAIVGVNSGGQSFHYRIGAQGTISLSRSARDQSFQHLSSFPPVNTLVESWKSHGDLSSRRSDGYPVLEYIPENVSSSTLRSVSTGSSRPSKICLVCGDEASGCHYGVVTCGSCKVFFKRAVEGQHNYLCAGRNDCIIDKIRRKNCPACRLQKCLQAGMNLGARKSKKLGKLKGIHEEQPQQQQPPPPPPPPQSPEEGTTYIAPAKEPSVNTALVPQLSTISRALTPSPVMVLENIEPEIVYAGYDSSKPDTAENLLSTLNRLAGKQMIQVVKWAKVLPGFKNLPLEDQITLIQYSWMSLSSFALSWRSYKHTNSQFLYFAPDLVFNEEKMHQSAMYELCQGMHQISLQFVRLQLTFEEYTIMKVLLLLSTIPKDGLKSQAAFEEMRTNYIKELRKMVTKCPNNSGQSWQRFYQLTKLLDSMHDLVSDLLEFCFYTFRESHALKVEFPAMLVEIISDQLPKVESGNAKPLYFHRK

[7] = target: T3, Mineralocorticoid receptor; experiment: as §1

Chain of Cytochrome P450 2C9 (P11712 whole entry): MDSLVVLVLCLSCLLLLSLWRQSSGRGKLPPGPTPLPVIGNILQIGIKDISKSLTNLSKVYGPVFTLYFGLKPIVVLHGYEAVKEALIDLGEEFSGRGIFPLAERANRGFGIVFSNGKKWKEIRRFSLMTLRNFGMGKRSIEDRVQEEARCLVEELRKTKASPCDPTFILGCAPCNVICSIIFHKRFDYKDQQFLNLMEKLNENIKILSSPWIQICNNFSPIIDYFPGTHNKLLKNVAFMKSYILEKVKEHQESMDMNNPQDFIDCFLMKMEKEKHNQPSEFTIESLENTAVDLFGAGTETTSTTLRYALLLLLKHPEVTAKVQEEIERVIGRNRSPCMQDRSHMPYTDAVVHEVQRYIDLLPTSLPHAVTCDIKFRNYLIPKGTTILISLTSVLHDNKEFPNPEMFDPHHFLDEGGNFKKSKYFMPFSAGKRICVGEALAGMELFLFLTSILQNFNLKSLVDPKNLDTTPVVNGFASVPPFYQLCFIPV

| SMILES | pIC50 (Cytochrome P450 2C9) | pIC50 (Cytochrome P450 2D6) | inhibition [1] | inhibition [2] | half-life [3] | inhibition [4] | pIC50 [5] | pIC50 (Cytochrome P450 3A4) | Activity [6] | pEC50 [7] |
| --- | --- | --- | --- | --- | --- | --- | --- | --- | --- | --- |
| CN1CCC2(CC1)C(=O)Nc1cc(/C=C3\c4ccccc4COc4cc(F)ccc43)ccc12 | 5.55 | 5.12 | 87% | 100% | 31 min | < 40% | 7.72 | 5.15 | – | – |
| O=C1COc2ccc(/C=C3\c4ccccc4COc4cc(F)ccc43)cc2N1 | – | – | 67% | 59% | – | – | 8.70 | – | 31% | 8.40 |
